One block for each compound: values may come before it.
How the values were obtained:
[1] = system: Ulcerative Colitis; conditions: topical irrigation of the colon; cited from earlier work
[2] = system: vascular inflammation; conditions: various models of vascular inflammation in rodents; cited from earlier work
[3] = system: OCTN1; conditions: transfected Phoenix mouse fibroblast cells, 37° C.; FIG. 4
Method: Transfected Phoenix mouse fibroblast cells were loaded with ^14C-labeled TEA for 30 min. at 37° C., washed twice in cold transport buffer, and then resuspended in transport medium. Efflux was initiated at 37° C. and measured at 0, 4, 8, 12 and 30 minutes. Measurements were taken by washing twice in cold transport buffer, solubilizing with 1× cell culture lysis reagent (Promega) and quantifying the 14C retention from 150 μL aliquots. Cellular protein content was determined according to the BCA method. For sodium-free experiments, cells were suspended in medium with sodium replaced isotonically with N-methyl-D-glucamine.

[4] = system: HSF1 binding to the OCTN2 promoter; assay: OCTN2 gel shift assay (EMSA) with HeLa nuclear extracts; type: cell-based, human; conditions: nuclear extract of HeLa cells treated with arachidonate; no binding at 37° C. alone
Method: For OCTN2 gel shift assays, human HeLa cells were grown in D-MEM supplemented with 10% fetal bovine serum, 2 mm […], 100 U/ml penicillin, and 100 μg/ml streptomycin at 37° C. in T-75 tissue culture flasks (Sarstedt). Heat-shocked cells were prepared by incubating the flasks in tissue culture incubator at 42° C. for 3 hr. For arachidonate experiment, the day before, the HeLa cells were starved over night with in serum-free D-MEM. The next day cells were washed twice with PBS. Cells were treated then with for 30 min with […] arachidonate at 37° C. The working concentrations were prepared from sodium arachidonate (Sigma) and stored in cold absolute ethanol as a 100 mM stock solution. Control cells were treated with an equivalent concentration of ethanol. Nuclear extracts were prepared by NP-40 based fractionation. This procedure is a modification of the procedure described by Baler R, Dahl G & Voellmy R, Mol. Cell. Biol. 13: 2486-2496 (1993). […] The protein concentration of the extracts was measured using the Bradford assay (Bio-Rad). […]
The reaction products were separated electrophoretically on 4% polyacrylamide gel for 3 h at 200 V, dried and exposed to film and detected by autoradiography.

[5] = system: OCTN2 promoter; assay: OCTN2 luciferase promoter assay; type: cell-based, human; conditions: HeLa cells, 20 μM arachidonic acid at 37° C.; FIG. 2
Source text: For the OCTN2 luciferase promoter assays, a Dual-Luciferase Reporter Assay System (Promega) was used to study the effect of the mutation on the OCTN2 promoter region. The OCTN2-promoter luciferase reporter gene constructs were generated by PCR amplification of approximately 2.7 kb OCTN2-promoter fragments using genomic DNA from a patient homozygous for the G allele as a template and ligation into Bg/II/MluI site of the promoterless luciferase vector pRL-null (Promega) that uses luciferase from Renilla reniformis as a reporter. For PCR primers, two primers, OCTN2-BglII:
5′-[…]-3′ (SEQ ID NO:13) and OCTN2-M1uI: 5′-[…]-3′ (SEQ ID NO:14) were used. […]
To normalize the activity of the experimental reporter, constructs were cotransfected into HeLa cells with 20-fold less firefly luciferase plasmid pGL3-P as an internal control LipofectAMINE PLUS™ Reagent (Invitrogen, La Jolla, Calif., USA) as per the manufacturer's protocol. […] The luminescence from (Renilla luciferase reaction (“experimental” reporter a:) was measured simultaneously with the activity of firefly luciferase (“control” reporter) using Dual-Luciferase Reporter Assay System (Promega). The instrumentation used was a manual luminometer (Lumat LB 9501, Berthold). The cells transfected with empty vector under similar conditions served as control. All assays were carried out in triplicate.

[6] = system: OCTN1; assay: OCTN1 transporter assay: uptake of radiolabeled carnitine by cells transfected with OCTN1 L503 or L503F; type: cell-based, human
Method: Transient expression of OCTN1 (transporter assays) and OCT2 (luciferase promoter assays). For transient expression of wild-type or mutant (L503F; SEQ ID NO:7), HeLa cells were plated out at a density […] cells/dish in 100-mm plastic culture dishes (Falcon) and carnitine deficient human fibroblasts, (GM 10665) were plated out at a density 2.5×10^5 cells/well in 6-well plastic culture dishes (Falcon) 24 hr prior transfection with LipofectAMINE PLUS™ Reagent (Invitrogen, La Jolla, Calif., USA) as recommended by the manufacturer.
For HeLa cell culture, human HeLa cells were grown in D-MEM supplemented with 10% fetal bovine serum, 2 mM L-glutamine, 100 U/ml penicillin, and 100 μg/ml streptomycin. […]
For the OCTN1 transporter assays, carnitine transport measurements were made at room temperature using L-[^3H]carnitine as substrate, (specific activity 81 Ci/mmol, Moravek Biochemicals Inc.). […] The cells were then solubilized with 1× cell culture lysis reagent (Promega), and the associated radioactivity was quantitated in a liquid scintillation counter. Cellular protein content was determined according to the bicinchoninic acid method of Smith P K et al., Anal. Biochem. 150: 76-85 (1985), using BCA standard protein assay reagent kit (Pierce). […] The luciferase activity was measured on manual luminometer (Lumat LB 9501, Berthold). […]

Compound: CCC(=O)O[C@H](CC(=O)[O-])C[N+](C)(C)C [PLC, propyonil-L-carnitine]
- effect on symptoms of Ulcerative Colitis [1]: improve some symptoms of Ulcerative Colitis
- effect on inflammation [2]: inhibits inflammation

Compound: CC[N+](CC)(CC)CC [TEA, tetraethyl ammonium]
- efflux of radiolabeled TEA by phenylalanine (L503F) variant of OCTN1 compared with leucine variant (L503) [3]: significant decrease in efflux

- binding of nuclear factor (HSF1) to oligonucleotide with wild-type G allele of OCTN2 promoter [4]: induced
Compound: CCCCC/C=C\C/C=C\C/C=C\C/C=C\CCCC(=O)O [arachidonic acid]
- decreased expression of luciferase construct with C allele of G-207C compared to the arachidonate-induced level [5]: 3.3 fold

Compound: C[N+](C)(C)CC(O)CC(=O)[O-] (stereo not shown) [carnitine]
- reduction toward vector baseline in uptake of radiolabeled carnitine, L503F vs leucine allele ([6]; cell line from an individual lacking OCTN2 expression, FIG. 3B): 5.2 fold
- reduction toward the vector-alone baseline in uptake of radiolabeled carnitine, phenylalanine allele (L503F) vs leucine allele ([6]; transient transfection into HeLa cells, FIG. 3A): 3.6 fold

— patent publication US20040197777A1, “Polymorphisms of the OCTN1 and OCTN2 cation transporters associated with inflammatory bowel disorders” (priority 2001, published 2004)
